Measured values taken from article PMC10480161, “Identification of potent and selective N-myristoyltransferase inhibitors of Plasmodium vivax liver stage hypnozoites and schizonts” (Nature Communications, 2023).
Where “and” joins values, the source holds several entries; their conditions need not be identical. Equal entries are not always repeated.

How the values were obtained:
[1] = test system: primary human hepatocytes; assay: Nuclear counts (DAPI) in P. vivax-infected primary hepatocytes as measure of toxicity; assay type: cell-based; settings: two technical replicates
Outline: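 Primary human hepatocytes from one donor lot, infected with P. vivax sporozoites, were dosed from day 5 to day 8 post-infection with daily refeeding and compound replacement, up to 20 µM. After PFA fixation, nuclei were DAPI-stained, imaged confocally and counted, then normalized to DMSO controls (two technical replicates).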

P. vivax hypnozoites = assay: P. vivax liver stage assay, hypnozoites; assay type: cell-based, Plasmodium vivax; settings: for Hypnozoites per well: Isolate 2, replicate wells (Figure 6d); for Number of liverstage hypnozoites per well: 20 µM, 8 dpi
Outline: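 Primary human hepatocytes infected with P. vivax sporozoites, then exposed to compound daily from day 5 to day 8 post-infection. Fixed cells stained with DAPI and PvUIS4 antibody; hypnozoites and schizonts counted by confocal imaging. MMV390048 at 20 µM served as schizont-eliminating control.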

P. vivax schizonts = assay: P. vivax liver stage assay, schizonts; assay type: cell-based, Plasmodium vivax; settings: for Number of liverstage Schizonts per well: 20 µM, 8 dpi
Outline: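 Primary human hepatocytes (single donor, 25,000/well) infected with 14,000 P. vivax sporozoites per well from patient isolates; compounds (up to 20 µM) given daily from day 5 to day 8 post-infection. Schizonts counted by PvUIS4/DAPI confocal imaging; DAPI nuclei count used as toxicity measure.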

HepG2 cells = assay: HepG2 cytotoxicity assay (Live/Dead staining); settings: for Percentage of live HepG2 cells compared with diluent controls: replicates
Outline: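 HepG2 cells (5000/well) treated with compounds at 1 to 20 µM, re-dosed with fresh compound every 24 h. Viability scored at 72 h by calcein-AM/ethidium homodimer (1 µM each, 10 min, 37 °C) live/dead staining under fluorescence microscopy.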

Cc1nn(C)c(C)c1CCOc1ccc2ccccc2c1-c1ccnc(N2CCNCC2)c1 [Compound 30a]
Nucleus counts per well ([1]; 1 uM): 15050 per well and 16480 per well | Nucleus counts per well ([1]; 2.5uM): 16520 per well and 15260 per well | Nucleus counts per well ([1]; 5 uM): 14210 per well and 14260 per well | Nucleus counts per well ([1]; 10uM): 14230 per well and 14010 per well | Nucleus counts per well ([1]; 20uM, P. vivax-infected wells): 13060 per well and 13510 per well | Hypnozoites per well (P. vivax hypnozoites; 1.25 uM): 6 and 9 and 13 | Hypnozoites per well (P. vivax hypnozoites; 2.5 uM): 5 and 0 and 3 | Hypnozoites per well (P. vivax hypnozoites; 5 uM): 2 (2×) and 0 | Hypnozoites per well (P. vivax hypnozoites; 10 uM): 1 and 0 and 2 | Number of liverstage hypnozoites per well (P. vivax hypnozoites; isolate 1, technical replicates (Fig. 6C)): 0 per well | Number of liverstage hypnozoites per well (P. vivax hypnozoites; isolate 2, technical replicates (Fig. 6C)): 0 per well | Number of liverstage hypnozoites per well (P. vivax hypnozoites; isolate 3, technical replicates (Fig. 6C)): 0 per well | Hypnozoites per well (P. vivax hypnozoites; 20 uM): 0 | hypnozoites (fold change to DMSO) mean diff (P. vivax hypnozoites; isolate 1, 20 µM): 0.954 | hypnozoites (fold change to DMSO) mean diff (P. vivax hypnozoites; isolate 2, 20 µM): 1.000 | IC50 (P. vivax hypnozoites; primary human hepatocytes, treatment day 5 to 8 post-infection, isolate 2): 2100 nM | Number of liverstage Schizonts per well (P. vivax schizonts; isolate 1, technical replicates (Fig. 5b)): 0 per well | Number of liverstage Schizonts per well (P. vivax schizonts; isolate 2, technical replicates (Fig. 5b)): 2 per well (2×) and 0 per well | Number of liverstage Schizonts per well (P. vivax schizonts; isolate 3, technical replicates (Fig. 5b)): 4 per well and 0 per well | Schizonts per well (P. vivax schizonts; Isolate 2, 1.25 uM): 10 per well and 11 per well and 19 per well | Schizonts per well (P. vivax schizonts; Isolate 2, 2.5 uM): 11 per well and 12 per well and 16 per well | Schizonts per well (P. vivax schizonts; Isolate 2, 5 uM): 6 per well and 8 per well and 11 per well | Schizonts per well (P. vivax schizonts; Isolate 2, 10 uM): 4 per well and 7 per well and 8 per well | Schizonts per well (P. vivax schizonts; Isolate 3, 1.25 uM): 13 per well and 11 per well | Schizonts per well (P. vivax schizonts; Isolate 3, 2.5 uM): 7 per well and 6 per well | Schizonts per well (P. vivax schizonts; Isolate 3, 5 uM): 8 per well and 4 per well | Schizonts per well (P. vivax schizonts; Isolate 3, 10 uM): 5 per well and 7 per well | schizonts (fold change to DMSO) mean diff (P. vivax schizonts; isolate 1, 20 µM): 1.000 | schizonts (fold change to DMSO) mean diff (P. vivax schizonts; isolate 2, 20 µM): 0.9245 | schizonts (fold change to DMSO) mean diff (P. vivax schizonts; isolate 3, 20 µM): 0.8636 | IC50 (P. vivax schizonts; primary human hepatocytes, treatment day 5 to 8 post-infection, isolates 2 and 3): 2900 to 4300 nM | IC50 (HepG2 cells): > 20000 nM | Percentage of live HepG2 cells compared with diluent controls (HepG2 cells; 1 μM): 103.422% and 100.304% | Percentage of live HepG2 cells compared with diluent controls (HepG2 cells; 2.5 μM): 101.733% and 94.8731% | Percentage of live HepG2 cells compared with diluent controls (HepG2 cells; 5 μM): 94.7431% and 110.101% | Percentage of live HepG2 cells compared with diluent controls (HepG2 cells; 10 μM): 109.841% and 95.0809% | Percentage of live HepG2 cells compared with diluent controls (HepG2 cells; 20 μM): 87.0514% and 94.4833%
